Our source for the stability and stability in formulations values is patent US20170118987A1, “SYNERGISTIC HERBICIDAL COMPOSITION AND USE THEREOF” (ROTAM AGROCHEM INTERNATIONAL CO., LTD, priority 2015, published 2017).

Data set [1] in a line: Stability of iodosulfuron-methyl-sodium solid forms. Particulars: hydrolysis when dissolved or dispersed in water and during storage exposed to moisture. It counts as physicochemical.
The conditions of data set [2]: compared with the amorphous state; from U.S. Ser. No. 14/926,133; cited from earlier work.

With `COC(=O)c1ccc(I)cc1S(=O)(=O)NC(=O)Nc1nc(C)nc(OC)n1.[Na]` [sodium salt of methyl 4-iodo-2-[[[[(4-methoxy-6-methyl-1,3,5-triazin-2-yl)amino]carbonyl]amino]sulfonyl]benzoate], the stability result in data set [1] was “highly unstable”. Also, the stability in formulations entry in data set [2] was “improved stability”.
